From patent publication US20230139025A1, “ANTIOXIDANT FOR USE IN TREATMENT FOR RIBE” (Institute of Hematology and Blood Diseases Hospital, CAMS & …, priority 2021, published 2023)

B1: IL-1α: cytokine added to the in-vitro culture system (protein, UniProt P01583 113-271, looked up)
Interleukin-1 alpha: SAPFSFLSNVKYNFMRIIKYEFILNDALNQSIIRANDQYLTAAALHNLDEAVKFDMGAYKSSKDDAKITVILRISKTQLYVTAQDEDQPVLLKEMPEIPKTITGSETNLLFFWETHGTKNYFTSVAHPNLFIATKQDYWVCLAGGPPSITDFQILENQA

Tests used:
HSPCs = assay: ROS levels of HSPCs in cytokine-treated groups; type: cell-based, human
HSPCs (CD34+ cells) = assay: γ-H2AX protein by Western blot after cytokine addition to in vitro culture system; type: cell-based, human; conditions: cytokine added to in vitro culture system, FIG. 6H
Protocol: (A) Flow cytometric analysis of fold change of ROS levels by DCF-DA staining in human CD34^+ cells of in vitro RIBE model; (B) Western blot verified the expression of related signaling pathway at the protein levels.
For the in vitro RIBE model, we cocultured CB-CD34^+ cells with 10 Gy irradiated or nonirradiated human BM cells using a transwell system. After 17 hours of coculture, the CD34^+ cells in the insert (in vitro bystander cells) were collected for subsequent experiments (FIG. 2).
Cytokines may exert multiple functions involving stress and inflammatory responses, which are also associated with RIBE. We observed several cytokines including IL-1, IL-6, IL-8, TNF-α, etc., were increased after irradiation (FIG. 6F). […] Moreover, we added IL-1α or IL-1ra to the in-vitro culture system and then measured the γ-H2AX protein by Western blot.

[1] = system: in vivo bystander human HSPCs; assay: In vivo RIBE model with antioxidant treatment, transplantation of homing human CD34+ cells into NOG mice; conditions: FIG. 11C
Protocol: NOG mice were given antioxidants for 7 days before irradiation.
For the in vivo RIBE model, CD34^+ cells purified from human cord blood (CB) were intravenously injected into 10 Gy irradiated (RIBE group) or nonirradiated (Control group) NOD/Shi-scid/IL-2Rγ^null (NOG) mice separately. After 17 hours, homing human CD34^+ cells (in vivo bystander cells) from recipients were individually detected or sorted for subsequent experiments (FIG. 1).
For the in vivo RIBE, the mice were treated with NAC, SF or Res for 7 days. CB CD34^+ cells were injected into nonirradiated or 10 Gy irradiated NOG mice in either the control, RIBE or RIBE with antioxidant treatment groups. After 17 hours, the homing human CD34^+ cells were sorted individually and transplanted into sublethally irradiated NOG mice (FIG. 10).

[2] = system: in vitro bystander human HSPCs; assay: Transplantation of in vitro antioxidant-treated bystander human CD34+ cells into NOG mice; type: in vivo; conditions: for HPC (CD34+CD38+) engraftment in BM: antioxidant treatment in vitro, FIG. 9C
Excerpt: (A) Collected human CD34^+ cells from FIG. 8(A) were transplanted into NOG mice. Mean human cell engraftment (left) after human CD34^+ cells collected from FIG. 8(A) transplanted into NOG mice and bars represent the fold difference of engraftment levels from each group (right, n = 6 to 8 per group). (B-C) Frequency of human CD34^+CD38^- cells (B) and CD34^+CD38^+ cells (C) in the BM of recipient; (D) Mean engraftment level of human cells in the spleen of recipients; and (E) Number of hematopoietic clones formed by human CD34^+ cells of each group (^∗p < 0.05, ^∗∗p <[…] 0.01, ^∗∗∗p < 0.001). For the in vitro RIBE model, we cocultured CB-CD34^+ cells with 10 Gy irradiated or nonirradiated human BM cells using a transwell system. After 17 hours of coculture, the CD34^+ cells in the insert (in vitro bystander cells) were collected for subsequent experiments (FIG. 2). Female NOG mice were irradiated at a dose of 2.0 Gy one day before transplantation. The homing human CD34^+ cells were transplanted into recipients at a dose of 5,000 cells/mouse intravenously. For serial transplantations, 1×10^7 whole BM cells from each primary recipient were intravenously transplanted into secondary recipient mice that were exposed to sublethal irradiation (2.0 Gy). Next, we asked whether the pharmacological inhibition of ROS elevation could protect human HSPCs from functional degradation. We used three antioxidants: N-acetyl-L-cysteine (NAC), sulforaphane (SF) and resveratrol (Res), to eliminate excessive ROS from bystander human HSPCs in vitro. For the in vitro RIBE, the BM cells were treated with NAC, SF or Res for 30 minutes before irradiation, and the antioxidants continued to exist in the coculture system until the CB CD34^+ cells were collected for analysis and some were transplanted into sublethally irradiated NOG mice intravenously (FIG. 7).

Row | Molecule | ROS levels of HSPCs (HSPCs) | DNA damage of HSPCs (γ-H2AX protein level) (HSPCs (CD34+ cells)) | HPC (CD34+CD38+) engraftment in BM [1] | myeloid and erythroid engraftment ([2]; antioxidant administration in vitro, BM, vs RIBE group) | HPC (CD34+CD38+) engraftment in BM [2]
1 | IL-1ra: cytokine added to the in-vitro culture system | did not change | can slightly increase DNA damage of bystander HSPCs | – | – | –
2 | Oc1ccc(C=Cc2cc(O)cc(O)c2)cc1 [Res, resveratrol] | – | – | could improve HPC engraftment in vivo | significantly higher myeloid and erythroid engraftment than the RIBE group | could improve HPC engraftment
3 | C[S+]([O-])CCCCN=C=S (centres unmarked) [SF, sulforaphane] | – | – | – | – | could improve HPC engraftment
4 | B1 | did not change | could loosen DNA damage of HSPCs both in the control and RIBE groups | – | – | –
